This is an account of results in patent US20050137220A1 (Pharmacia Corporation, priority 2003, published 2005).

What is called IC50 is the point on the concentration scale where inhibition reaches its midpoint.

“And” between values parts separate entries of the source, which are not always exact repeats. Equal entries are not always repeated. Structures can show the parent of a compound that is named as a salt. Bounds are passed on as bounds.

In one assay the target is MK-2 (Homo sapiens, UniProt P49137). In words: Determination of MK-2 IC50 (phosphorylation of HSP-peptide, anion exchange resin capture assay). Type of assay: biochemical. The settings on record: additional values are replicate IC50 experiments; mixture of stereoisomers implied unless otherwise noted; read-out: MK-2 Avg. IC50.
Sequence of MK-2 (P49137 whole entry, species assumed): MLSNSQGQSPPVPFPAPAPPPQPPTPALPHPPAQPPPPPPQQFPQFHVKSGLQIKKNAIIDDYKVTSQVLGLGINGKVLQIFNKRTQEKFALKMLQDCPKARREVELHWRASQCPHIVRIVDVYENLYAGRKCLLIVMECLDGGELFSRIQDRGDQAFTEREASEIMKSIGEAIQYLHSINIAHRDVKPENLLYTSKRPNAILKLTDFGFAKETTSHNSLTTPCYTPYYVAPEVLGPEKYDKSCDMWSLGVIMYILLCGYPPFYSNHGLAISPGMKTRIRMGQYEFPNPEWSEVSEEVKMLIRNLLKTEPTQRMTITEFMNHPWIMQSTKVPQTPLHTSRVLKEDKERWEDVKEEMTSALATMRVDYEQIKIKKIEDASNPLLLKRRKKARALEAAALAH
With `COc1ccc2[nH]c3c(c2c1)CCNC3Cc1nnn[nH]1` (stereo not drawn) [Example 166, 6-methoxy-1-(1H-tetraazol-5-ylmethyl)-2,3,49-tetrahydro-1H-beta-carboline hydrochloride hydrate], the IC50 is more than 200 µM.
Regarding `COc1ccc2[nH]c3c(c2c1)CCNC3CN` (stereo not drawn) [Example 230, 1-(6-methoxy-2,3,4,9-tetrahydro-1H-beta-carbolin-1-yl)methanamine trifluoroacetate hydrate], the IC50 is more than 200 µM.
Consider `COc1ccc2[nH]c3c(c2c1)CCNS3(=O)=O` [Example 153, 6-methoxy-2,3,4,9-tetrahydro[1,2]thiazino[6,5-b]indole 1,1-dioxide], for which the IC50 stood at 155 µM.
As for `COc1ccc2[nH]c3c(c2c1)CCNC3(C)C(=O)O` (stereo not drawn) [Example 237, 6-methoxy-1-methyl-2,3,4,9-tetrahydro-1H-beta-carboline-1-carboxylic acid hydrochloride], the concentration for half-maximal inhibition (IC50) is more than 200 µM.
Turning to `COc1ccc2[nH]c3c(c2c1)C(Cc1cccc(C(F)(F)F)c1)CNC3C(=O)O` (stereo not drawn) [Example 118, 6-methoxy-4-[3-(trifluoromethyl)benzyl]-2,3,4,9-tetrahydro-1H-beta-carboline-1-carboxylic acid], the IC50 turned out to be 70.9 µM.
Still for that read-out and setting: in the case of `CCC(CC)CN1CCc2c([nH]c3ccc(OC)cc23)C1C(=O)O` (stereo not drawn) [Example 197, sodium 2-(2-ethylbutyl)-6-methoxy-2,3,4,9-tetrahydro-1H-beta-carboline-1-carboxylate] it was more than 200 µM; in that of `COc1ccc(Oc2ccc3[nH]c4c(c3c2)CCC/C4=N\O)cc1` [Example 144, 6-(4-methoxyphenoxy)-2,3,4,9-tetrahydro-1H-carbazol-1-one oxime], 130 µM; in that of `CCCC1Cc2c([nH]c3ccc(OC)cc23)C(C(=O)O)N1` (stereo not drawn) [Example 148, 6-methoxy-3-propyl-2,3,4,9-tetrahydro-1H-beta-carboline-1-carboxylic acid], 137 µM.
In the case of `COc1ccc2[nH]c3c(c2c1)C(c1ccccc1)CNC3C(=O)O` (stereo not drawn) [Example 210, 6-methoxy-4-phenyl-2,3,4,9-tetrahydro-1H-beta-carboline-1-carboxylic acid hydrochloride], the IC50 is more than 200 µM.
Take `COC(=O)[C@@H]1Cc2c([nH]c3ccccc23)C(C)(C(=O)O)N1` (mixture of isomers) [Example 228, 3-(methoxycarbonyl)-1-methyl-2,3,4,9-tetrahydro-1H-beta-carboline-1-carboxylic acid]: the IC50 was more than 200 µM.
For `O=C(O)c1ccc2[nH]c3c(c2c1)CCNC3=O` [Example 271, 1-oxo-2,3,4,9-tetrahydro-1H-beta-carboline-6-carboxylic acid], the IC50 was more than 200 µM.
Still for that read-out and setting: then `O/N=C1\CCCc2c1[nH]c1ccccc21` [Example 109, 2,3,4,9-tetrahydro-1H-carbazol-1-one oxime], with 49.9 µM; and `COC(=O)C1c2[nH]c3ccc(OC)cc3c2CCN1CCCO[Si](C)(C)C(C)(C)C` (stereo not drawn) [Example 181, methyl 2-(3-{[tert-butyl(dimethyl)silyl]oxy}propyl)-6-methoxy-2,3,4,9-tetrahydro-1H-beta-carboline-1-carboxylate], with more than 200 µM.
Consider `O=C1NCCc2c1[nH]c1cccc(C(=O)N3CCNCC3)c21` [Example 268, 5-(piperazin-1-ylcarbonyl)-2,3,4,9-tetrahydro-1H-beta-carbolin-1-one hydrochloride], for which the IC50 was more than 200 µM.
Same read-out and setting: then `Cc1cccc2c3c([nH]c12)C(=O)NCC3` [Example 258, 1H-Pyrido[3,4-b]indol-1-one,2,3,4,9-tetrahydro-8-methyl- or 8-methyl-2,3,4,9-tetrahydro-1H-beta-carbolin-1-one], with more than 200 µM; and `O=C1NCCc2c1[nH]c1c(Br)cc3c(c21)OCCO3` [Example 256, 6-bromo-2,3,7,9,10,11-hexahydro-8H-[1,4]dioxino[2,3-e]pyrido[3,4-b]indol-8-one], with more than 200 µM.
Same read-out and setting: then `COc1ccc2[nH]c3c(c2c1)CCNC3(CC(=O)O)C(=O)O` (stereo not drawn) [Example 226, 1-(carboxymethyl)-6-methoxy-2,3,4,9-tetrahydro-1H-beta-carboline-1-carboxylic acid], with more than 200 µM; and `COC(=O)C1NC(CO)Cc2c1[nH]c1ccc(OC)cc21` (stereo not drawn) [Example 184, methyl 3-(hydroxymethyl)-6-methoxy-2,3,4,9-tetrahydro-1H-beta-carboline-1-carboxylate], with more than 200 µM; and `O=C1NCCc2c1[nH]c1c(Cl)ccc(Cl)c21` [Example 252, 5,8-dichloro-2,3,4,9-tetrahydro-1H-beta-carbolin-1-one], with more than 200 µM.
`O=C(O)C1NCCc2c1[nH]c1ccc(OCc3cccnc3)cc21` (stereo not drawn) [Example 102, 6-(pyridin-3-ylmethoxy)-2,3,4,9-tetrahydro-1H-beta-carboline-1-carboxylic acid hydrochloride]: the IC50 is 42.6 µM.
Consider `O=C1NCCc2c1[nH]c1cccc(C(=O)O)c21` [Example 250, 1-oxo-2,3,4,9-tetrahydro-1H-beta-carboline-5-carboxylic acid], for which the IC50 was more than 200 µM.
For the compound `COc1cc2[nH]c3c(c2cc1OC)CCCC3=NO` [Example 131, 6,7-dimethoxy-2,3,4,9-tetrahydro-1H-carbazol-1-one oxime], the concentration for half-maximal inhibition (IC50) is 100 µM.
As for `O=C1NCCc2c1[nH]c1ccc(F)cc21` [Example 261, 1H-Pyrido[3,4-b]indol-1-one,6-fluoro-2,3,4,9-tetrahydro- or 6-fluoro-2,3,4,9-tetrahydro-1H-beta-carbolin-1-one or 1h-Pyrido[3,4-B]Indol-1-One,6-Fluoro-2,3,4,9-Tetrahydro-], the IC50 was more than 200 µM.
Still for that read-out and setting: in the case of `COC(=O)c1cccc2[nH]c3c(c12)CCNC3C(=O)O` (stereo not drawn) [Example 142, 5-(methoxycarbonyl)-2,3,4,9-tetrahydro-1H-beta-carboline-1-carboxylic acid hydrochloride hydrate] it was 121 µM; in that of `C=CCN1CCc2c([nH]c3ccc(OC)cc23)C1C(=O)O` (stereo not drawn) [Example 128, potassium 2-allyl-6-methoxy-2,3,4,9-tetrahydro-1H-beta-carboline-1-carboxylate], 95.1 µM and 98.2 µM.
On the same count and under the same terms, then `O=C1NCCc2c1[nH]c1ccc(Br)cc21` [Example 117, 6-bromo-2,3,4,9-tetrahydro-1H-beta-carbolin-1-one], with 69.6 µM; and `O=C1NCCc2c1[nH]c1ccccc21` [Example 260, 1H-Pyrido[3,4-b]indol-1-one,2,3,4,9-tetrahydro- or 2,3,4,9-tetrahydro-1H-beta-carbolin-1-one], with more than 200 µM.
On the same count and under the same terms, then `Cc1cccc2c3c([nH]c12)C(C(=O)O)NCC3` (stereo not drawn) [Example 215, 8-methyl-2,3,4,9-tetrahydro-1H-beta-carboline-1-carboxylic acid hydrochloride], with more than 200 µM; and `O=C(O)C1c2c(c3ccccc3n2Cc2ccccc2)CCN1Cc1cccc(C(F)(F)F)c1` (stereo not drawn) [Example 112, 1H-Pyrido[3,4-b]indole-1-carboxylic acid, 2,3,4,9-tetrahydro-9-(phenylmethyl)-2-[[3-(trifluoromethyl)phenyl]methyl]- or 9-benzyl-2-[3-(trifluoromethyl)benzyl]-2,3,4,9-tetrahydro-1H-beta-carboline-1-carboxylic acid], with 53.7 µM; and `COc1ccc2[nH]c3c(c2c1)CCNC3(CCCC(=O)O)C(=O)O` (stereo not drawn) [Example 179, 1-(3-carboxypropyl)-6-methoxy-2,3,4,9-tetrahydro-1H-beta-carboline-1-carboxylic acid], with more than 200 µM.
Regarding `COC(=O)c1cccc2c3c([nH]c12)CCCC3=O` [Example 100, methyl 4-oxo-2,3,4,9-tetrahydro-1H-carbazole-8-carboxylate], the IC50 was 39.8 µM.
Turning to `COC(=O)C1Cc2c([nH]c3ccccc23)C(C(=O)O)N1` (stereo not drawn) [Example 227, 3-(methoxycarbonyl)-2,3,4,9-tetrahydro-1H-beta-carboline-1-carboxylic acid], the IC50 is more than 200 µM.
Turning to `COC(=O)C1c2[nH]c3ccc(OC)cc3c2CCN1CCNC(=O)OC(C)(C)C` (stereo not drawn) [Example 195, methyl 2-{2-[(tert-butoxycarbonyl)amino]ethyl}-6-methoxy-2,3,4,9-tetrahydro-1H-beta-carboline-1-carboxylate], the IC50 was more than 200 µM.
Same read-out and setting: then `COc1ccc2[nH]c3c(c2c1)CCNC3(CCC(=O)O)C(=O)O` (stereo not drawn) [Example 178, 1-(2-carboxyethyl)-6-methoxy-2,3,4,9-tetrahydro-1H-beta-carboline-1-carboxylic acid], with more than 200 µM.

Another assay concerns U937 cells. As to the kind of experiment: U937 Cell TNFα Release Assay. Type of assay: cell-based, human. Conditions: Homo sapiens, U-937, 4 h, LPS-stimulated differentiated U937 cells, TNFα by ELISA; mixture of stereoisomers implied unless otherwise noted; read-out: TNF Release Assay Avg. IC50. A general note: ELISA stands for enzyme-linked immunosorbent assay.
Regarding `CSc1ccc2[nH]c3c(c2c1)C1CCN(C1)C3C(=O)O` (stereo not drawn) [Example 50], the 50% inhibitory concentration (IC50) is 15.3 µM.

Still in this assay, the particulars now being: Homo sapiens, U-937, 4 h, read-out: TNF Release Assay Avg. IC50, LPS-stimulated differentiated U937 cells, TNFα by ELISA; mixture of stereoisomers implied unless otherwise noted.
On to `COc1ccc2[nH]c3c(c2c1)C(Cc1ccccc1)CNC3C(=O)O` (stereo not drawn) [Example 71, 4-benzyl-6-methoxy-2,3,4,9-tetrahydro-1H-beta-carboline-1-carboxylic acid], for which the IC50 stood at 54 µM.

The assay is the same for the next values; noted with them: Homo sapiens, U-937, read-out: TNF Release Assay Avg. IC50, LPS-stimulated differentiated U937 cells, TNFα by ELISA; mixture of stereoisomers implied unless otherwise noted.
Turning to `COc1ccc2[nH]c3c(c2c1)C1CCN(C1)C3C(=O)OCC(C)(C)C` (stereo not drawn) [Example 84, hydrochloride], the IC50 is 41 µM.
Take `COc1ccc2[nH]c3c(c2c1)C1CCN(C1)C3C(=O)OCC(O)CO` (stereo not drawn) [Example 20, 2,3-dihydroxypropyl 7-methoxy-3,4,5,10-tetrahydro-1H-2,5-methanoazepino[3,4-b]indole-1-carboxylate hydrochloride]: the IC50 is more than 100 µM.

Still in this assay, the particulars now being: read-out: TNF Release Assay Avg. IC50; LPS-stimulated differentiated U937 cells, TNFα by ELISA; mixture of stereoisomers implied unless otherwise noted; trifluoroacetate.
As to `COc1ccc2[nH]c3c(c2c1)C1CCN(C1)C3C(=O)OCc1ccccc1` (stereo not drawn) [Example 31, benzyl 7-methoxy-3,4,5,10-tetrahydro-1H-2,5-methanoazepino[3,4-b]indole-1-carboxylate trifluoroacetate], the IC50 came to 46.2 µM.
